Laboratory results published in patent US7541044B2, “Administration of 5T4 antigen and immune response of cells expressing 5T4 and CEA antigens” (priority 2004, dated 2009).

Experiments:
[1] = tested on: colon carcinoma derived metastatic rat tumour line; conditions: SC tumour line transfected with cytosine deaminase gene, then 5-fluorocytosine; cited from earlier work
[2] = Adverse events, NCI-common toxicity criteria (BC1); assay type: in vivo, human; conditions: attributed to oral cyclophosphamide
Procedure: Further assessment was performed in out-patients on day 7. Biopsy of the injected tumour nodules was performed under local anaesthetic. The biopsies were snap-frozen in liquid nitrogen, then sectioned and fixed for histological assessment. Treatment with cyclophosphamide 100 mg/m^2 p.o. was commenced for 14 out of every 28 days. Patients were reviewed weekly for the first 8 weeks and end of study assessment, including tumour size and appropriate re-staging CT scans performed at 12 weeks. Response was assessed according to WHO criteria. Patients with stable or responding disease continued with cyclophosphamide at the discretion of the investigator. Toxicity was graded according to NCI-common toxicity criteria (version 2).
The main toxicity observed in the study was attributed to oral cyclophosphamide with the most frequent non-haematological events described as nausea (9 patients), alopecia (6 patients), headache (5 patients), anorexia (4 patients) and fatigue (4 patients). All of these events were grade I or II by NCI-CTC with the exception of one patient with grade III fatigue. Two patients had clinically significant haematological toxicity with grade III leucopenia and grade II neutropenia. No patients were admitted with neutropenic fever. […] During the study 3 patients with breast cancer experienced serious adverse events (patient 103 hypotension, dysarthria and left sided weakness, patient 104 trismus and tongue oedema and patient 108 deep vein thrombosis, hypotension and dyspnoea). None of the serious adverse events were considered related to MetXia-P450.

[3] = tested on: B16 melanoma lung metastases; conditions: tk gene then ganciclovir; immunocompetent but not immunodeficient mice; cited from earlier work

Nc1nc(=O)[nH]cc1F [5-fluorocytosine]
regression in the volume of established liver tumours [1]: 70%

O=P1(N(CCCl)CCCl)NCCCO1 (stereo not drawn) [cyclophosphamide]
clinically significant haematological toxicity (grade III leucopenia and grade II neutropenia) [2]: Two | fatigue [2]: 4 patients | grade III fatigue [2]: one | alopecia ([2]; grade I or II): 6 patients | anorexia ([2]; grade I or II): 4 patients | headache ([2]; grade I or II): 5 patients | nausea ([2]; grade I or II): 9 patients

Nc1nc(O)c2ncn(COC(CO)CO)c2n1 [ganciclovir]
B16 melanoma lung metastases [3]: marked reduction
